Converted amounts (≈) assume the structure as drawn.
Columns and labels:
[1] = system: K-562; assay: Proliferation assay; type: cell-based; conditions: Homo sapiens, K562; 72 h, n = 4
Method: (§1) Supplementary Method 5: Biological Assays […]
(§2) 2. Proliferation and cytotoxicity assay
(§3) Cells and culture conditions
(§4) The following cell lines and media were used:
(§5) Cell line Cell culture medium
(§6) Cells were grown in the appropriate cell culture medium supplemented with 10 mL/L ultraglutamine 1 […]
(§7) heat inactivated fetal bovine serum (GIBCO Life Technologies 10270-106) at 37 °C in 5% CO 2 in high density polyethylene flasks (NUNC 156340).
(§8) To decide if the compounds have an antiproliferative and/or a cytotoxic effect on human cells, cell death and retardation of cell proliferation were assessed. Under our experimental conditions, the optical density measured from the CellTiter-Blue® reagent and methylene blue assay is proportional to the […]
(§9) The test substances were dissolved in DMSO and further diluted in the cell culture medium. The adherent cells were harvested at the logarithmic growth phase after soft trypsinization using 0.25% trypsin in PBS containing 0.02% EDTA (Biochrom KG L2163). For each experiment, approximately 10,000 cells were seeded with 0.1 mL culture medium per well of the 96-well microplates (HUVEC: flat bottomed NUNC 167008, K-562: round bottomed NUNC 163320). To test the antiproliferative […]
(§10) effect of test compounds on HUVEC and K-562, the cells were incubated for 72 hours in plates prepared with control and different dilutions of test substances. […]
(§11) of proliferation compared to the untreated control. […]
(§12) Cells were incubated with dilutions of the test substances in microplates for 72 hours at 37 °C in a humidified atmosphere and 5% CO 2. […]
cytotoxicity and the inhibition of cell proliferation. The number of viable cells was determined subsequent to staining with CellTiter-Blue® reagent or methylene blue.
K-562 cells: The influence of test substances on cell proliferation of K-562 was determined via the CellTiter-Blue® assay (PROMEGA). Briefly, viable cells are able to reduce the indicator dye resazurin […]
dye. Thus, formation of resorufin was followed by measuring absorption at 570 nm and subtracting absorption measured at 600 nm. […]
(§13) General remarks: Signals from the methylene blue and CellTiter-Blue® reagent are proportional to the number of viable cells. A repeat determination has been conducted in all experiments, four replicates were assayed. The calculations of the different values of GI 50 and CC 50 were performed with the software

[2] = set-up: method as in PMID 28097740; conditions: preclinical studies ref 12; cited from earlier work
[3] = system: Mycobacterium smegmatis (JMRC:STH:00056); assay: MIC determination; type: cell-based; conditions: Mycolicibacterium smegmatis; n = 1
Method: (§14) Supplementary Method 5: Biological Assays
Minimal inhibitory concentrations were determined against Mycobacterium vaccae (JMRC:STI:10670) and Mycobacterium smegmatis (JMRC:STH:00056). M. vaccae and M. smegmatis cultures were grown 48 h at 32 °C in a medium consisting of glycerol (1%), beef extract (0.5%), peptone from casein (0.5%) and sodium chloride (0.3%). Serial dilutions of the DMSO test item solutions (1 mg∙mL -1) were prepared at 100 µL scale in 96 well plates in Mueller Hinton broth starting at 200 µg∙mL -1 (highest) to cover a final concentration range of 100 to 0.05 µg∙mL -1. Each plate was equipped with a series of DMSO and ciprofloxacin dilutions as quality controls. 96 well plates were inoculated with 100 µL diluted culture (Mueller Hinton bullion) at a final concentration of 5∙10 5 and incubated at 37 °C for 42 h. Growth/no growth was visually inspected. […]

[4] = system: HUVEC; assay: Proliferation assay; type: cell-based; conditions: Homo sapiens, 72 h, n = 4
Method: as §1, §2, §3, §4, §5, §6, §7, §8, §9, §10, §11, §12
(§15) cytotoxicity and the inhibition of cell proliferation. The number of viable cells was determined subsequent to staining with CellTiter-Blue® reagent or methylene blue. […]
(§16) HUVEC and HeLa cells: The adherent HUVEC and HeLa cells were fixed by glutaraldehyde (MERCK […]
(§17) gently washing, the stain was eluted by adding 0.2 mL of hydrochloric acid (0.33 M) to each well. The optical densities were measured at 660 nm (methylene blue) in SUNRISE microplate reader (TECAN).
as §13

[5] = system: Mycobacterium vaccae (JMRC:STI:10670); assay: MIC determination; type: cell-based; conditions: for MIC: Mycolicibacterium vaccae, n = 1; for Selectivity index: ratio between CC50 (HeLa) and MIC M. vaccae
Method: as §14
Minimal inhibitory concentrations were determined against Mycobacterium vaccae (JMRC:STI:10670) and Mycobacterium smegmatis (JMRC:STH:00056). M. vaccae and M. smegmatis cultures were grown 48 h at 32 °C in a medium consisting of glycerol (1%), beef extract (0.5%), peptone from casein (0.5%) and sodium chloride (0.3%). Serial dilutions of the DMSO test item solutions (1 mg∙mL -1) were prepared at 100 µL scale in 96 well plates in Mueller Hinton broth starting at 200 µg∙mL -1 (highest) to cover a final concentration range of 100 to 0.05 µg∙mL -1. Each plate was equipped with a series of DMSO and ciprofloxacin dilutions as quality controls. 96 well plates were inoculated with 100 µL diluted culture (Mueller Hinton bullion) at a final concentration of 5∙10 5 and incubated at 37 °C for 42 h. Growth/no growth was visually inspected.
as §2, §3, §4, §5, §6, §7, §8
The test substances were dissolved in DMSO and further diluted in the cell culture medium. The adherent cells were harvested at the logarithmic growth phase after soft trypsinization using 0.25% trypsin in PBS containing 0.02% EDTA (Biochrom KG L2163). For each experiment, approximately 10,000 cells were seeded with 0.1 mL culture medium per well of the 96-well microplates (HUVEC: flat bottomed NUNC 167008, K-562: round bottomed NUNC 163320). To test the antiproliferative

[6] = Cytotoxicity assay; type: cell-based; conditions: human, n = 4
Method: as §1, §2, §3, §4, §5, §6, §7, §8
as §9, with “163320).” for “163320). To test the antiproliferative”
For the cytotoxicity assay, HeLa cells were preincubated for 48 hours without the test substances. To test the cytotoxic effect on HeLa, dilutions of the compounds were carried out carefully on the subconfluent monolayers of HeLa cells after the preincubation time. After incubation time, the cytolytic effect of compounds was analysed in comparison to the negative control. The 50% cytotoxic concentration (CC 50 ) was defined as the test compound concentration required for destruction of the cell monolayer by 50% compared to untreated control.
as §12, §15, §16, §17, §13

| Structure (SMILES) | GI50 [1] | HMC formation in vivo (in words) [2] | MIC [3] | GI50 [4] | MIC [5] | Selectivity index [5] | CC50 at 72 h [6] |
| --- | --- | --- | --- | --- | --- | --- | --- |
| C[C@H]1COC2(CCN(c3nc(=O)c4cc(C(F)(F)F)cc([N+](=O)[O-])c4s3)CC2)O1 [Compound 1, reference compound] | > 116 µM | significant hydride-Meisenheimer complex (HMC) formation in vivo | 0.058 µM (≈ 0.025 µg/mL) | > 116 µM | 0.004 µM (≈ 0.00173 µg/mL) | > 31248 | > 116 µM |
| CCOC(=O)c1cc([N+](=O)[O-])c2sc(N3CCC4(CC3)OC[C@H](C)O4)nc(=O)c2c1 [Compound 6b] | 50.7 ± 6.9 µM |  | 57.4 µM (≈ 25 µg/mL) | 49.1 ± 1.1 µM | 1.79 µM (≈ 0.779 µg/mL) | > 64 | > 115 µM |
| C[C@H]1COC2(CCN(c3nc(=O)c4cc(C(=O)OCCO)cc([N+](=O)[O-])c4s3)CC2)O1 [Compound 6d] | 17.9 ± 1.1 µM |  | 55.4 µM (≈ 25 µg/mL) | 73.3 ± 4.2 µM | 13.8 µM (≈ 6.23 µg/mL) | > 8 | > 111 µM |
| C[C@H]1COC2(CCN(c3nc(=O)c4cc(C(=O)OCCI)cc([N+](=O)[O-])c4s3)CC2)O1 [Compound 6e] | 27.6 ± 0.9 µM |  | 44.5 µM (≈ 25 µg/mL) | 30.8 ± 0.5 µM | 2.78 µM (≈ 1.56 µg/mL) | 28 | 78.2 ± 1.4 µM |
| C[C@H]1COC2(CCN(c3nc(=O)c4cc(C(=O)OCCOC(=O)c5cc([N+](=O)[O-])c6sc(N7CCC8(CC7)OC[C@H](C)O8)nc(=O)c6c5)cc([N+](=O)[O-])c4s3)CC2)O1 [Compound 6f] | > 59 µM |  | 119 µM (≈ 100 µg/mL) | > 59 µM | 14.9 µM (≈ 12.5 µg/mL) | > 4 | > 59.4 µM |
| C[C@H]1COC2(CCN(c3nc(=O)c4cc(C(N)=O)cc([N+](=O)[O-])c4s3)CC2)O1 [Compound 7a] | > 123 µM |  | 123 µM (≈ 50 µg/mL) | > 123 µM | 61.5 µM (≈ 25 µg/mL) | > 2 | > 123 µM |
| CNC(=O)c1cc([N+](=O)[O-])c2sc(N3CCC4(CC3)OC[C@H](C)O4)nc(=O)c2c1 [Compound 7b] | > 119 µM |  | 119 µM (≈ 50 µg/mL) | > 119 µM | 59.5 µM (≈ 25 µg/mL) | > 2 | > 119 µM |
| C[C@H]1COC2(CCN(c3nc(=O)c4cc(C(=O)NCCO)cc([N+](=O)[O-])c4s3)CC2)O1 [Compound 7d] | > 111 µM |  | 111 µM (≈ 50 µg/mL) | > 111 µM | 27.7 µM (≈ 12.5 µg/mL) | > 4 | > 111 µM |
| C[C@H]1COC2(CCN(c3nc(=O)c4cc(C5=NCCO5)cc([N+](=O)[O-])c4s3)CC2)O1 [Compound 7e] | > 116 µM |  | 28.9 µM (≈ 12.5 µg/mL) | > 116 µM | 14.5 µM (≈ 6.27 µg/mL) | > 8 | > 116 µM |

Reference: PMC11227536, “Modulation of the Meisenheimer complex metabolism of nitro-benzothiazinones by targeted C-6 substitution” (Communications Chemistry, 2024)
